Read-outs that look alike come from different tables or passages of the source. Each block holds one molecule with its values, some of them ahead of it. Numbered stars: 1 amine (or outer) side, 2 acyl side, 3 side chain; on linkers, the order of the positions; unused ones are H or OH. Bridge positions count the residues as written; N and C are the ends. Side chains are listed from the residue outwards. Peptide text beside a SMILES is read from it. * marks the point of attachment. C20 diacid = O=C(O)CCCCCCCCCCCCCCCCCCC(=O)*; γGlu = O=C(O)[C@H](CCC(=O)[*:2])N[*:1]
Key:
[1] = HMWP content by size-exclusion chromatography; format: physicochemical; settings: analogs 1–9 (pH 7.5 series); covalent dimers and polymers prior to fibril formation testing, SEC, % of total absorbance area at 215 nm
Procedure: The stability properties of the individual amylin analogs were assessed with respect to their propensity toward amyloid fibril formation. The relative amount of covalent dimers and polymers (HMWP) present prior to fibril formation testing was measured as a control for the potential inhibitory effect of HMWP on fibril formation propensity as reported elsewhere.[39]
Elution was performed under isocratic conditions with the following mobile phase prepared in Milli-Q water (Millipore A/S): 0.5 M NaCl, 10 mM sodium dihydrogen monohydrate, 5 mM ortho-phosphoric acid, 50% (v/v) 2-propanol. The amount of HMWP was determined as the absorbance area of the corresponding peaks given in percentage of the total absorbance area. The molar extinction coefficients of the molecules eluting in the HMWP fraction and the main peak was assumed to be equal.

[2] = target: T1, hCTR (Homo sapiens, UniProt P30988); experiment: cAMP-responsive element luciferase reporter assay, human CTR; format: cell-based; settings: luciferase (human receptor assay)
T1 sequence (P30988 25-474): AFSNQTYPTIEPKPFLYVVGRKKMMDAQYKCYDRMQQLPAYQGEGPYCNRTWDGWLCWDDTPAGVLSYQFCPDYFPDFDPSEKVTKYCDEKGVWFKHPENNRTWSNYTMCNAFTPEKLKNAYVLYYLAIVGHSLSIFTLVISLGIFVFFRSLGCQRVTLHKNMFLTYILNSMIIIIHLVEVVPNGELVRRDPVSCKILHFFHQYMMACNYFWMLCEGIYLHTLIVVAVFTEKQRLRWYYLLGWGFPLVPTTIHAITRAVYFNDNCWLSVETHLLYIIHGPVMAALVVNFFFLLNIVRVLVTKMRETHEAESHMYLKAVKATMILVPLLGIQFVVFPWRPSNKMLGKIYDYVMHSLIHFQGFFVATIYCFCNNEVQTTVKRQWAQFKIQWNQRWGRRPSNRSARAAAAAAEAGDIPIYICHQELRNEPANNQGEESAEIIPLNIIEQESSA

[3] = ThT assay: fibril formation propensity and peptide recovery; format: physicochemical
Procedure: The stability properties of the individual amylin analogs were assessed with respect to their propensity toward fibril formation, expressed as the time until fibril formation (measured as Lag time) and loss of dissolved peptide (assessed as Peptide Recovery). […] Samples were prepared as described previously (using the same methodology and materials) for a novel amylin-based analog candidate compound.[7]
Briefly, each compound was dissolved in 10 mM of glycylglycine buffer (pH 4.0) or HEPES buffer (pH 7.5) to a concentration of 250 μM, followed by ThT stock solution to a final concentration of 1 μM. Each solution was aliquoted into a microtiter plate (200 μL/well) sealed with a transparent adhesive sheet. Mechanical stress was applied at 37 °C incubation (960 rpm, 1 mm amplitude) with 20 min fluorescence reading intervals for 45 h (filters: excitation 444 nm; emission 485 nm). Each peptide was tested in experiments consisting of four replicas (e.g., four wells on the same plate), and the lag time of each replica was determined by visual inspection of the fluorescence-versus-time plot. For wells where no fibril formation could be detected, the lag time was set longer than the test period (>45 h). The lag time of the peptide was set to the lowest lag time of the four replicates (conservative estimate). Some of the peptides were tested in more than one experiment, and the lag time results given in Tables 6 and 9 represent the average of these experiments. The ThT time course data given in Supporting Information represent the average and SEM of each experiment.[40] After analysis, wells representing individual replicas were pooled, and the residual soluble peptide was isolated using centrifugation (20,000 g/30 min at room temperature) followed by […] filtration. The amount of residual dissolved peptide was determined using an HPLC with a flow rate of 2 mL/min at 30 °C and 215/276 nm detection. A gradient combining eluent A (7.7% w/w acetonitrile, 200 mM Na2SO4, 20 mM NaH2PO4, 20 mM Na2HPO4, pH 7.2) and eluent B (65.5% w/w acetonitrile) was applied. The amount of residual dissolved peptide was reported on a relative scale (Peptide Recovery) to the amount of dissolved peptide prior to mechanical stress.

[4] = target: T2, hAMY3R (Homo sapiens, UniProt O60896+P30988); experiment: cAMP-responsive element luciferase reporter assay, human AMY3R; format: cell-based; design: expressed in transfected cells; settings: for EC50: luciferase (human receptor assay)
T2 sequence (P30988 25-474): T1 sequence (P30988 25-474)
T2 sequence (O60896 24-148 partner): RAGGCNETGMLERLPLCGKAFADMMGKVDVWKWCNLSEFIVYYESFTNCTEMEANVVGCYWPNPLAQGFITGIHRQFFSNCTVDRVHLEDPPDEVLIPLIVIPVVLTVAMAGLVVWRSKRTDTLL

[5] = Solubility versus pH profile
[6] = target: T3, rat AMY3R (Rattus norvegicus, UniProt P32214+Q9JJ73); experiment: cAMP FlashPlate assay, rat AMY3R; format: cell-based; settings: for EC50: cAMP (rat receptor assay)
T3 construct: expressed in transfected cells; host or cells: BHK tk-ts 13, transient co-transfection (FuGENE 6)
T3 sequence (P32214 25-479 isoform P32214-2 limits assumed): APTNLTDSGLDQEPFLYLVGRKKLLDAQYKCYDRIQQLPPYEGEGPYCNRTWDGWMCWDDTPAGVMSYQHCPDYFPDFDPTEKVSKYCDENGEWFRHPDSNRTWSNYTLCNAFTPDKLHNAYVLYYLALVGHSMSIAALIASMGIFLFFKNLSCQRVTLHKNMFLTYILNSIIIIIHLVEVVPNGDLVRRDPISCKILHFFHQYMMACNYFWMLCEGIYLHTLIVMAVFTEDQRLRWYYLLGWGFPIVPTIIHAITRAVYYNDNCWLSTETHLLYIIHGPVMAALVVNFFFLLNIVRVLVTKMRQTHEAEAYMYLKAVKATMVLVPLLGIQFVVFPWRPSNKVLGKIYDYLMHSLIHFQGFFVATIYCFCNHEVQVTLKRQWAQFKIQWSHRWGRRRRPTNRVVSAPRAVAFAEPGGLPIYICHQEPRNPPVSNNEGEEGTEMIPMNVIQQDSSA
T3 sequence (Q9JJ73 23-147 partner): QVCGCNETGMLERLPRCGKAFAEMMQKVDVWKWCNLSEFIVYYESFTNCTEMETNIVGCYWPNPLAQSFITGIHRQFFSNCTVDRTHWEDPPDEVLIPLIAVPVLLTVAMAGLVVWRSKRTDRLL

[7] = target: T4, rat CTR (Rattus norvegicus, UniProt P32214); experiment: cAMP FlashPlate assay, rat CTR; format: cell-based; settings: cAMP (rat receptor assay)
T4 construct: expressed in transfected cells; host or cells: BHK tk-ts 13, transient (FuGENE 6)
T4 sequence (P32214 25-479 isoform P32214-2 limits assumed): T3 sequence (P32214 25-479 isoform P32214-2 limits assumed)

[8] = test system: rats; settings: cited from earlier work
Text: SEM is the standard error of the mean. || From the daily consumption of food observed in the DIO rats, the steep decrease around day 2 is a typical pattern observed with appetite-reducing agents in rodents.[31]

[9] = test system: cAMY1R; experiment: Species-specific cAMP assay, cAMY1R; settings: cAMP HTRF, transiently transfected BHK cells, 30 min room temperature, five experiments
[10] = test system: cAMY3R; experiment: Species-specific cAMP assay, cAMY3R; settings: cAMP HTRF, transiently transfected BHK cells, 30 min room temperature, five experiments
[11] = test system: cCTR; experiment: Species-specific cAMP assay, cCTR; settings: cAMP HTRF, transiently transfected BHK cells, 30 min room temperature, five experiments
[12] = single sc injection of 30 nmol/kg, published previously

HMWP [1]: 7%
EC50 ([2]; Tables S12 and S14, read-out: hCTR pEC50 (converted)): 0.692 nM
EC50 ([2]; BHK cells stably expressing hCTR and CRE-luciferase, 3 h, 37 °C, 10% FBS, read-out: hCTR EC50): 0.697 nM
ThT, pH 7.5 lag-time ([3]; 250 μM peptide, 10 mM HEPES pH 7.5, 1 μM ThT, 37 °C, 960 rpm, 45 h, lowest of four replicas, average of experiments): >45 h
recovery ([3]; pH 7.5, residual dissolved peptide after 45 h of shaking, centrifugation and 0.22 μm filtration, HPLC, relative to amount before stress): 100%
EC50 ([4]; Tables S12 and S14, read-out: hAMY3R pEC50 (converted)): 0.182 nM
EC50 ([4]; BHK cells stably expressing hCTR+RAMP3 and CRE-luciferase, 3 h, 37 °C, 10% FBS, read-out: hAMY3R EC50): 0.18 nM
ratio hCTR/hAMY3R ([4]; ratio of luciferase EC50 values): 3.9
solubility kinetic ([5]; bis-tris-propane buffer, pH 6, aqueous buffer): ≥ 200 µM
solubility kinetic ([5]; bis-tris-propane buffer, pH 6.5, aqueous buffer): ≥ 200 µM
solubility kinetic ([5]; bis-tris-propane buffer, pH 7, aqueous buffer): ≥ 200 µM
solubility kinetic ([5]; bis-tris-propane buffer, pH 7.5, aqueous buffer): ≥ 200 µM
solubility kinetic ([5]; bis-tris-propane buffer, pH 8, aqueous buffer): ≥ 200 µM
solubility kinetic ([5]; lactate buffer, pH 4, aqueous buffer): ≥ 200 µM
solubility kinetic ([5]; lactate buffer, pH 5, aqueous buffer): ≥ 200 µM
EC50 ([6]; Tables S12 and S14, read-out: rAMY3R pEC50 (converted)): 0.468 nM
EC50 ([6]; transiently transfected BHK tk-ts 13 cells, FlashPlate, 30 min room temperature, 2% HSA, read-out: rAMY3R EC50): 0.463 nM
ratio rCTR/rAMY3R ([6]; ratio of cAMP EC50 values): 31
EC50 ([7]; Tables S12 and S14, read-out: rCTR pEC50 (converted)): 14.5 nM
EC50 ([7]; transiently transfected BHK tk-ts 13 cells, FlashPlate, 30 min room temperature, 2% HSA, read-out: rCTR EC50): 14.3 nM
Compound: CC(C)C[C@H](NC(=O)[C@H](CCCNC(=N)N)NC(=O)[C@H](CCC(N)=O)NC(=O)[C@@H](NC(=O)[C@H](C)NC(=O)[C@@H]1CSSC[C@H](NC(=O)[C@@H](N)CCCCNC(=O)CC[C@H](NC(=O)CCCCCCCCCCCCCCCCCCC(=O)O)C(=O)O)C(=O)N[C@@H](CC(N)=O)C(=O)N[C@@H]([C@@H](C)O)C(=O)N[C@@H](C)C(=O)N[C@@H]([C@@H](C)O)C(=O)N1)[C@@H](C)O)C(=O)N[C@@H](C)C(=O)N[C@@H](CC(=O)O)C(=O)N[C@@H](Cc1ccccc1)C(=O)N[C@@H](CC(C)C)C(=O)N[C@@H](CCCNC(=N)N)C(=O)N[C@@H](Cc1c[nH]cn1)C(=O)N[C@@H](CO)C(=O)N[C@@H](CO)C(=O)N[C@@H](CCC(N)=O)C(=O)N[C@@H](CC(N)=O)C(=O)N[C@@H](Cc1ccccc1)C(=O)NCC(=O)N[C@@H](C)C(=O)N1CCC[C@H]1C(=O)N[C@@H](CC(C)C)C(=O)N[C@@H](CO)C(=O)N[C@@H](CO)C(=O)N[C@H](C(=O)N1CCC[C@H]1C(=O)N[C@H](C(=O)NCC(=O)N[C@@H](CO)C(=O)N[C@@H](CC(=O)O)C(=O)N[C@H](C(=O)N[C@@H](Cc1ccc(O)cc1)C(N)=O)[C@@H](C)O)C(C)C)[C@@H](C)O [Peptide 1] (H-K([γGlu-C20 diacid])CNTATCATQRLADFLRHSSQNFGAPLSSTPVGSDTY-NH2; disulfide 2-7)

Compound: CC[C@H](C)[C@H](NC(=O)[C@@H]1CCCN1C(=O)CNC(=O)[C@H](Cc1ccccc1)NC(=O)[C@H](CC(N)=O)NC(=O)[C@H](CC(N)=O)NC(=O)[C@H](CO)NC(=O)[C@H](CO)NC(=O)[C@H](Cc1c[nH]cn1)NC(=O)[C@H](CCCNC(=N)N)NC(=O)[C@H](CC(C)C)NC(=O)[C@H](Cc1ccccc1)NC(=O)[C@H](CCC(=O)O)NC(=O)[C@H](C)NC(=O)[C@H](CC(C)C)NC(=O)[C@H](CCCNC(=N)N)NC(=O)[C@H](CCC(N)=O)NC(=O)[C@@H](NC(=O)[C@H](C)NC(=O)[C@@H]1CSSC[C@H](NC(=O)[C@H](CCCCN)NC(=O)CC[C@H](NC(=O)CCCCCCCCCCCCCCCCCCC(=O)O)C(=O)O)C(=O)N[C@@H](CC(N)=O)C(=O)N[C@@H]([C@@H](C)O)C(=O)N[C@@H](C)C(=O)N[C@@H]([C@@H](C)O)C(=O)N1)[C@@H](C)O)C(=O)N[C@@H](CC(C)C)C(=O)N1CCC[C@H]1C(=O)N1CCC[C@H]1C(=O)N[C@H](C(=O)N[C@@H](CC(N)=O)C(=O)N[C@H](C(=O)NCC(=O)N[C@@H](CO)C(=O)N[C@@H](CC(N)=O)C(=O)N[C@H](C(=O)N1CCC[C@H]1C(N)=O)[C@@H](C)O)C(C)C)[C@@H](C)O [cagrilintide]
reduction in food intake in rats [8]: 45%
reduction of food intake 0−24 h [8, 12]: 85%
reduction of food intake 24–48 h [8, 12]: 84%

Compound: CC(C)C[C@H](NC(=O)[C@H](CCCCN)NC(=O)CNC(=O)[C@H](CC(C)C)NC(=O)[C@@H](NC(=O)[C@@H]1CSSC[C@H](N)C(=O)N[C@@H](CO)C(=O)N[C@@H](CC(N)=O)C(=O)N[C@@H](CC(C)C)C(=O)N[C@@H](CO)C(=O)N[C@@H]([C@@H](C)O)C(=O)N1)C(C)C)C(=O)N[C@@H](CO)C(=O)N[C@@H](CCC(N)=O)C(=O)N[C@@H](CCC(=O)O)C(=O)N[C@@H](CC(C)C)C(=O)N[C@@H](Cc1c[nH]cn1)C(=O)N[C@@H](CCCCN)C(=O)N[C@@H](CC(C)C)C(=O)N[C@@H](CCC(N)=O)C(=O)N[C@H](C(=O)N[C@@H](Cc1ccc(O)cc1)C(=O)N1CCC[C@H]1C(=O)N[C@@H](CCCNC(=N)N)C(=O)N[C@H](C(=O)N[C@@H](CC(N)=O)C(=O)N[C@H](C(=O)NCC(=O)N[C@@H](CO)C(=O)NCC(=O)N[C@H](C(=O)N1CCC[C@H]1C(N)=O)[C@@H](C)O)[C@@H](C)O)[C@@H](C)O)[C@@H](C)O [sCT, salmon calcitonin, reference compound]
cAMY1R pEC50 [9]: 10.61
cAMY3R pEC50 [10]: 11.16
cCTR pEC50 [11]: 11.27

From article PMC11284788, “NN1213 – A Potent, Long-Acting, and Selective Analog of Human Amylin” (Journal of Medicinal Chemistry, 2024)
